Experimental data as given in PubChem BioAssay (NCI).
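Five compound concentrations were applied to cells in 96-well plates for 48 hours; endpoints were derived by simple linear interpolation of the resulting dose-response curve. GI50 marks 50% less growth. TGI: concentration producing complete growth inhibition.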

What was measured:
Assay in all cases: NCI-60 cell line screen, 48 h
[1] = tested on: HCT-116 colon
[2] = tested on: UACC-62 melanoma
[3] = tested on: MDA-MB-231 breast
[4] = tested on: 786-0 renal
[5] = tested on: TK-10 renal
[6] = tested on: UACC-257 melanoma
[7] = tested on: MOLT-4 leukemia
[8] = tested on: NCI/ADR-RES ovarian
[9] = tested on: NCI-H522 lung
[10] = tested on: HCT-15 colon
[11] = tested on: U251 CNS
[12] = tested on: OVCAR-3 ovarian
[13] = tested on: SK-MEL-5 melanoma
[14] = tested on: NCI-H460 lung
[15] = tested on: PC-3 prostate
[16] = tested on: OVCAR-8 ovarian
[17] = tested on: SW-620 colon
[18] = tested on: HL-60(TB) leukemia
[19] = tested on: DU-145 prostate
[20] = tested on: ACHN renal
[21] = tested on: HOP-62 NSCLC
[22] = tested on: SR leukemia
[23] = tested on: KM12 colon
[24] = tested on: HCC-2998 colon
[25] = tested on: EKVX NSCLC
[26] = tested on: K-562 leukemia
[27] = tested on: COLO 205 colon
[28] = tested on: OVCAR-5 ovarian
[29] = tested on: MDA-MB-435
[30] = tested on: T-47D breast
[31] = tested on: IGROV1 ovarian
[32] = tested on: SN12C renal
[33] = tested on: NCI-H226 lung
[34] = tested on: HT29 colon
[35] = tested on: SF-295 CNS
[36] = tested on: OVCAR-4 ovarian
[37] = tested on: M14 melanoma
[38] = tested on: SNB-19 CNS
[39] = tested on: CAKI-1 renal
[40] = tested on: LOX IMVI melanoma
[41] = tested on: BT-549 breast
[42] = tested on: SK-OV-3 ovarian
[43] = tested on: SK-MEL-2 melanoma
[44] = tested on: UO-31 renal
[45] = tested on: A549 NSCLC
[46] = tested on: RXF 393 renal
[47] = tested on: HOP-92 NSCLC
[48] = tested on: SF-268 CNS
[49] = tested on: NCI-H23 lung
[50] = tested on: SK-MEL-28 melanoma

CCCCCCCCN=C(N)c1ccc(N2CCN(c3ccc(C(N)=NCCCCCCCC)cc3)CC2)cc1 gave a GI50 [1] of 1.64 µM, a TGI [1] of 5.99 µM and a GI50 [2] of 1.92 µM. The TGI [2] was 8.44 µM, the GI50 [3] was 3.37 µM and the TGI [3] was over 50 µM. For the same compound, the GI50 [4] was 1.67 µM, the TGI [4] was 5.49 µM and the GI50 [5] was 1.72 µM. It also gave a TGI [5] of 8.92 µM, a GI50 [6] of 4.03 µM and a TGI [6] of 13.2 µM. It also gave a GI50 [7] of 0.724 µM, a TGI [7] of 3.4 µM and a GI50 [8] of over 50 µM. The TGI [8] was over 50 µM, the GI50 [9] was 2.27 µM and the TGI [9] was over 50 µM. The GI50 [10] was 1.79 µM, the TGI [10] was 7.2 µM and the GI50 [11] was 1.45 µM. It also gave a TGI [11] of 6.33 µM, a GI50 [12] of 0.931 µM and a TGI [12] of 3.2 µM. For the same compound, the GI50 [13] was 1.05 µM, the TGI [13] was 2.45 µM and the GI50 [14] was 1.63 µM. It also gave a TGI [14] of over 50 µM, a GI50 [15] of 22.7 µM and a TGI [15] of over 50 µM. It also gave a GI50 [16] of 1.49 µM, a TGI [16] of 6.65 µM and a GI50 [17] of 1.76 µM. For the same compound, the TGI [17] was 16.8 µM, the GI50 [18] was 1.17 µM and the TGI [18] was 4.66 µM. The GI50 [19] was 2.42 µM, the TGI [19] was 18 µM and the GI50 [20] was 2.37 µM. For the same compound, the TGI [20] was 12.7 µM, the GI50 [21] was 7.14 µM and the TGI [21] was 15 µM. For the same compound, the GI50 [22] was 0.97 µM, the TGI [22] was 2.26 µM and the GI50 [23] was 1.9 µM. For the same compound, the TGI [23] was 8.81 µM, the GI50 [24] was 2.06 µM and the TGI [24] was 8.79 µM. The GI50 [25] was 1.55 µM, the TGI [25] was 8.75 µM and the GI50 [26] was 1.46 µM. The TGI [26] was over 50 µM, the GI50 [27] was 1.49 µM and the TGI [27] was 19.2 µM. It also gave a GI50 [28] of 3.27 µM, a TGI [28] of 14.4 µM and a GI50 [29] of 1.25 µM. The TGI [29] was 3.23 µM, the GI50 [30] was 1.63 µM and the TGI [30] was 13.5 µM. It also gave a GI50 [31] of 1.62 µM, a TGI [31] of over 50 µM and a GI50 [32] of 1.09 µM. For the same compound, the TGI [32] was 3.05 µM, the GI50 [33] was 1.6 µM and the TGI [33] was 5.44 µM. It also gave a GI50 [34] of 1.61 µM, a TGI [34] of 13.6 µM and a GI50 [35] of 1.1 µM. The TGI [35] was 2.79 µM, the GI50 [36] was 2.35 µM and the TGI [36] was 14.9 µM. It also gave a GI50 [37] of 1.76 µM, a TGI [37] of 6.68 µM and a GI50 [38] of 2.16 µM. For the same compound, the TGI [38] was 14.6 µM, the GI50 [39] was 1.28 µM and the TGI [39] was 3.68 µM. For the same compound, the GI50 [40] was 1.92 µM, the TGI [40] was 9.01 µM and the GI50 [41] was 1.41 µM. The TGI [41] was 3.82 µM, the GI50 [42] was 1.76 µM and the TGI [42] was 10.2 µM. The GI50 [43] was 1.69 µM, the TGI [43] was over 50 µM and the GI50 [44] was 4.22 µM. It also gave a TGI [44] of over 50 µM, a GI50 [45] of 1.67 µM and a TGI [45] of 9.08 µM. The GI50 [46] was 1.13 µM, the TGI [46] was 4.49 µM and the GI50 [47] was 14.9 µM. For the same compound, the TGI [47] was over 50 µM, the GI50 [48] was 1.85 µM and the TGI [48] was 5.91 µM. The GI50 [49] was 1.52 µM, the TGI [49] was 6.49 µM and the GI50 [50] was 2.74 µM. The TGI [50] was 17.2 µM.
